One assay concerns MARCKS and NHE1. The assay can be described thus: LPS-induced phosphorylation of MARCKS and NHE1 (immunoprecipitation/immunoblot). Type of assay: cell-based, human. The following applies: LPS 1 μg/ml, 4 hours, HMW-HA 100 nM or Y-27632 500 nM. Background: Immunoblotting shows a protein as a band on a membrane.
The next assay concerns caveolin-1. In words: Caveolin-1 expression in mouse lung homogenates (immunoblot). The class given is in vivo. Particulars: HMW-HA+LPS. On the procedure:
Animal Preparation and Treatment. Male C57BL/6J, B6129N2, CD44^−/− or caveolin-1^−/− mice (8-10 weeks, Jackson Laboratories, Bar Harbor, Me.) were anesthetized with intraperitoneal ketamine (150 mg/kg) and acetylpromazine (15 mg/kg) before exposure of the right internal jugular vein via neck incision. LPS (2.5 mg/kg) or water (control) were instilled intratracheally. Four hours later, mice receive high MW HA (1.5 mg/kg) or water control through the internal jugular vein. The animals were allowed to recover for 24 hours after LPS before bronchioalveolar lavage protein and cytokine concentration and/or lung immunohistochemistry/immunoblot analysis (Peng et al., 2004).
Immunoblot analysis of CD44 and Caveolin-1 expression in control, LPS- and HA-treated mouse lung homogenates. CD44 is highly likely to be important in lung disease as CD44−/− mice develop lung fibrosis, inflammatory cell recruitment and accumulation of hyaluronan fragments at sites of lung injury (Teder et al., 2002). […] Caveolin-1 can be differentially regulated in various models of acute lung injury (ALI). Monocrotaline-induced rodent pulmonary hypertension results in a loss of lung EC caveolin-1 expression (Mathew et al., 2004). In contrast, there is no change in pulmonary caveolin-1 expression in lipopolyscaaharide (LPS)-induced sepsis with lung injury (Garrean et al., 2006). […]

The next assay has as its system Human pulmonary EC. In words: Atomic Force Microscopy of EC morphology and lipid rafts. Particulars: 100 nM high MW HA. Type of assay: cell-based. The method, then: Atomic Force Microscopy. The protocols/procedures for AFM analysis of 50 to 100 nm pits (CEM, lipid rafts), EC height and force measurements were previously described in detail (Dvorak, 2003, Reich et al., 2001, Henderson et al., 2004, Milhiet et. al., 2004, Miklaszewska, 2004, Lucius, 2003). EC treated with various siRNAs or treated with MβCD with or without 100 nM high MW HA (0, 15, 30, 60 min.) were fixed in 4% glutaraldehyde and analyzed in tapping mode on a DI multimode AFM (Digital Instruments, Santa Barbara, Calif.) using a V-shaped oxide-sharpened silicon nitride cantilever with an optical scanning speed of ˜1.0 Hz to obtain a surface topology map which was quantitated and spatially defined using Metamorph™ software. For live cells, GFP and GFP-caveolin-1 expressing EC were treated with or without 100 nM high MW HA in a DI Bioscope cell chamber (Digital Instruments, Santa Barbara, Calif.) were exposed to tapping mode AFM with concurrent fluorescence scanning and images were obtained using a C5985 chilled CCD camera (Hamamatsu Photonics Systems, Bridgewater, N.J.).

The source of these data is patent US20100249064A1, “METHODS AND COMPOSITIONS FOR TREATING DISEASES AND CONDITIONS INVOLVING HIGHER MOLECULAR WEIGHT HYALURONAN” (University of Chicago, priority 2007, published 2010).

In the case of hyaluronan [HMW-HA], the “LPS-induced phosphorylation of MARCKS and NHE1” value in the assay on MARCKS and NHE1 was “inhibit LPS-induced phosphorylation of MARCKS and NHE1”. Further, the “caveolin-1 expression in mouse lungs” value with caveolin-1 was “did not significantly alter caveolin-1 expression”. Besides, in the assay on Human pulmonary EC, the “EC morphological changes (AFM)” value was “caused dramatic morphological changes including increased thickening of EC junctions” and the “total number of lipid raft-like structures (AFM)” value is listed as “did not change”.
